Test results: patent publication US20130302825A1, “USES OF MACROPHAGE MANNOSE RECEPTOR TO SCREEN COMPOUNDS AND USES OF THESE COMPOUNDS” (Merck, priority 2010, published 2013)

Biological target: T1, mannose receptor (Rattus norvegicus, UniProt A0A8I5XVS2)
T1 construct: NR8383 rat alveolar macrophages were obtained from ATCC; host or cells: NR8383 rat alveolar macrophages
T1 sequence (A0A8I5XVS2 1-1431): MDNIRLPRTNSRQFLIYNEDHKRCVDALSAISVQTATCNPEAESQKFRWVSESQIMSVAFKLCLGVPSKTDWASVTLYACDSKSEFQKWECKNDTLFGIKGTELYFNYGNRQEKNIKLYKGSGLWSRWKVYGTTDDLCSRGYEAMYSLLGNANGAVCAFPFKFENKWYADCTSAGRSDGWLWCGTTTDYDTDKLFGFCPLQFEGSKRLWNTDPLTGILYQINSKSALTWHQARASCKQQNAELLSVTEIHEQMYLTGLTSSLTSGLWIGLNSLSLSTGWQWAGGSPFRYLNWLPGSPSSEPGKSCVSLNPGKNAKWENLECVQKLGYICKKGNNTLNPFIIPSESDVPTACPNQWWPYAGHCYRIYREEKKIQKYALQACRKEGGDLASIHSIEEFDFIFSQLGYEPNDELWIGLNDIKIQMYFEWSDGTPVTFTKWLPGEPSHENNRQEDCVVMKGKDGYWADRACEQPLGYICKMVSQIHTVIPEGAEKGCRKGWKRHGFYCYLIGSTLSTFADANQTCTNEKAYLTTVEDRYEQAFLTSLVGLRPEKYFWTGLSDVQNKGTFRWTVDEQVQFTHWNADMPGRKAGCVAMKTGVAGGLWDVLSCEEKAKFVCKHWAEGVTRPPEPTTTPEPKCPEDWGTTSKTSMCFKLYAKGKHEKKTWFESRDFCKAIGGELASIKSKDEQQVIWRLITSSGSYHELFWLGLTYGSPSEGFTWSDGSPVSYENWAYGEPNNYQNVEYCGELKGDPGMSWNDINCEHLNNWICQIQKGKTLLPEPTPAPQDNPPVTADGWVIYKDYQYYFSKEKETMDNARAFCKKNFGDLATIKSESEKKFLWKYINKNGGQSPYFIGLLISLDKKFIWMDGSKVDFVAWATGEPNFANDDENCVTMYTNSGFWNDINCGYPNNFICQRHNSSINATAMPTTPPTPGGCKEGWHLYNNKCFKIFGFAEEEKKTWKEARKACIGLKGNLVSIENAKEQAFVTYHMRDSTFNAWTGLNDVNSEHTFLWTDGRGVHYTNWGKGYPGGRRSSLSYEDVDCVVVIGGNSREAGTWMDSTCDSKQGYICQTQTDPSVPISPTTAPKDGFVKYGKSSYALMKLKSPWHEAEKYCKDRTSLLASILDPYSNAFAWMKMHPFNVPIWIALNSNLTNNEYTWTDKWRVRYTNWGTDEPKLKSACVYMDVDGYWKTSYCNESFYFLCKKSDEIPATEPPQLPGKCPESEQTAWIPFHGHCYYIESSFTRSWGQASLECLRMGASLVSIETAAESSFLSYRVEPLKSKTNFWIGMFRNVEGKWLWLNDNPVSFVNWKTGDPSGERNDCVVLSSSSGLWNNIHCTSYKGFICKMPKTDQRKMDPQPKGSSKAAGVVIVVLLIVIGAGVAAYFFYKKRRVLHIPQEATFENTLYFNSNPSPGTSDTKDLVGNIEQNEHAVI
Assay: Uptake of Alexa488-SI-0052 in NR8383 in the presence of competing sugars
Assay type: cell-based
Settings: 250 nM Alexa488-SI-0052, varying sugar concentrations; FIG. 1b
Protocol: NR8383 rat alveolar macrophages were obtained from ATCC and cultured in gelatin coated flasks in F12K medium +15% heat inactivated FBS+antibiotics. For uptake experiments, NR8383 were seeded in gelatin coated 96 well plates and allowed to reach confluence. […] Each condition was carried out in triplicate. […] Cells were transferred to V-bottom 96 well plates and centrifuged (800 g, 7 min, 4C) to collect. Pellets were washed with cold 5 mM EDTA and again centrifuged. Cells were then resuspended in 1% paraformaldehyde in PBS and stored at 4C in the dark until analysis.
Uptake of Alexa488-SI-0052, as measured by cellular fluorescence, was assessed using flow cytometry (FACSCalibur). The geometric mean of fluorescence for 5000-10000 cells was measured for each sample. Mannose specific uptake was taken to be the difference between total uptake (without mannan) and the uptake in the presence of mannan (non-specific uptake).
The uptake of Alexa488-SI-0052 was measured, as described above, in the presence of various sugars known to have varying affinities for the mannose receptor. NR8383 were incubated with a constant concentration of Alexa488-SI-0052 (250 nM, chosen because this concentration lies on the concentration dependent portion of the Alexa488-SI-0052 uptake curve) and varying concentrations of α-methyl mannose (α-MM), glucose and galactose.

| SMILES | Interference with Alexa488-SI-0052 uptake (rank order) |
| --- | --- |
| COC1O[C@H](CO)[C@@H](O)[C@H](O)[C@@H]1O (stereo partly drawn) [α-MM, α-methyl mannose] | interferes the most |
| O=C[C@H](O)[C@@H](O)[C@@H](O)[C@H](O)CO [galactose] | then galactose |
